Measured values taken from patent US20240382502A1, “COMPOSITIONS AND METHODS FOR DEEP DERMAL DRUG DELIVERY” (ARCUTIS BIOTHERAPEUTICS, INC., priority 2020, published 2024).

Assays:
[1] = Particle size distribution by laser diffraction; type: physicochemical; conditions: SHR0302 used in Example 1, Malvern Hydro MV, ethyl acetate dispersion
Excerpt: In the pharmaceutical compositions of the present invention, the active ingredient is present as small particles. Particle size of the drug can be assessed using laser diffraction methods. Laser diffraction is recognized by standards and guidance agencies including ISO and ASTM and is widely used to determine particle size distributions. In conducting the assessment, the sample is passed through a laser beam, which results in laser light scattered at a range of angles. Detectors placed at fixed angles measure the intensity of light scattered at that position. A mathematical model is then applied to generate a particle size distribution. The particle size values reported herein are determined by using a liquid or wet dispersion method.
In particle size determinations, the median value is defined as the value where half of the population resides above this point, and half resides below this point. For particle size distributions the median is called the D50. The D50 is the size that splits the distribution with half above and half below this diameter. The distribution width may also be characterized by citing one, two or three values on the x-axis, typically some combination of the D10, D50, and D90. The D50, the median, has been defined above as the diameter where half of the population lies below this value. Similarly, 90 percent of the distribution lies below the D90, and 10 percent of the population lies below the D10.
A pharmaceutical composition comprising 3% SHR0302 suspended in dimethicone was prepared. The primary particle size distribution of the SHR0302 is characterized by a D10 value of less than about 0.25 μm; a D50 value of less than about 0.7 μm; and a D90 value of less than about 5 μm. The pharmaceutical composition was a transparent solution due to the particles being too small to scatter visible light. A Malvern Metasizer Model 3000 using the Hydro MV dispersion unit was used to determine the particle size distribution profile of SHR0302. […]

JAK1 = JAK1 (Homo sapiens, UniProt P23458); conditions: in words; cited from earlier work
JAK1, sequence (P23458 whole entry): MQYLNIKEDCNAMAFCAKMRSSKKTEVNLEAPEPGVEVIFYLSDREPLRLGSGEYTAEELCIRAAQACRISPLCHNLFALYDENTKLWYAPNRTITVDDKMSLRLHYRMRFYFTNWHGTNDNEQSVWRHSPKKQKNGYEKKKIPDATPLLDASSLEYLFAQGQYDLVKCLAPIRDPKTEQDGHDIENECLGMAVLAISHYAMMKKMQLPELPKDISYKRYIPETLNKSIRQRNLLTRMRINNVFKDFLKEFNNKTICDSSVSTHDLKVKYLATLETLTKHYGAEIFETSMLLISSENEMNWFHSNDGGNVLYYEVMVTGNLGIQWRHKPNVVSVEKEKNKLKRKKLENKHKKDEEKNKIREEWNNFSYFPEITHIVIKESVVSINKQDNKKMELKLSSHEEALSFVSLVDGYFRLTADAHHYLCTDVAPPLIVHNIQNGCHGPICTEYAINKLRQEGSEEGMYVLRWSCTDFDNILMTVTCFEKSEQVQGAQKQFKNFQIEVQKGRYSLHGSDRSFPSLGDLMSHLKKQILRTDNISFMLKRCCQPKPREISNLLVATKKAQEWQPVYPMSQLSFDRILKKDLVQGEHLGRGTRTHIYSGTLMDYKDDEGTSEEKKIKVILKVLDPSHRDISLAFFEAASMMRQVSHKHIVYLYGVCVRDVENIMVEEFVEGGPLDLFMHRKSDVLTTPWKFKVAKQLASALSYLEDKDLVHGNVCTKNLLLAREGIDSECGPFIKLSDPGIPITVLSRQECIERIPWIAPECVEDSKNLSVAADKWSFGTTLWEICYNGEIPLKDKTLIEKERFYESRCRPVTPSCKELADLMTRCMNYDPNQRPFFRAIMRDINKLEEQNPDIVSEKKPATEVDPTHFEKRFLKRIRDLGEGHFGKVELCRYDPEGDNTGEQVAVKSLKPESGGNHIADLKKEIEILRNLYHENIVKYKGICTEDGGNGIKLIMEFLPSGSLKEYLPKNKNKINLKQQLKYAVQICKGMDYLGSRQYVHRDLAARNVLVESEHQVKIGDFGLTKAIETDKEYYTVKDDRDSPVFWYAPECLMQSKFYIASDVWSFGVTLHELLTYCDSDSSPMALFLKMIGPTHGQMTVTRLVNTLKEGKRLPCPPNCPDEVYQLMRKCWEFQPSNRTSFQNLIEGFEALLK

[2] = orally administered, women; cited from earlier work

primary particle size distribution D10 [1]	primary particle size distribution D50 [1]	primary particle size distribution D90 [1]	Compound	inhibition of JAK1 (JAK1)	selectivity for JAK1 over JAK2 (JAK1)	efficacy in treatment of acne [2]
less than 0.25 μm	less than 0.7 μm	less than 5 μm	COc1nsc(NC(=O)N2C[C@H]3C[C@H](N(C)c4ncnc5[nH]ccc45)C[C@H]3C2)n1 [SHR0302, (3aR,5S,6aS)-N-(3-methoxyl-1,2,4-thiadiazol-5-yl)-5-(methyl(7H-pyrrolo[2,3-d]pyrimidin-4-yl)amino)hexahydrocyclopenta[c]pyrrole-2(1H)-carboxamide]	potent	high selectively for JAK1 over JAK2	
			CC(=O)S[C@@H]1CC2=CC(=O)CC[C@]2(C)[C@H]2CC[C@@]3(C)[C@@H](CC[C@@]34CCC(=O)O4)[C@H]12 [spironolactone, 17-hydroxy-7α-mercapto-3-oxo-17α-pregn-4-ene-21-carboxylic acid γ-lactone acetate]			efficacious
